In patent US20240239774A1, “SOLUBLE ADENYLYL CYCLASE (SAC) INHIBITORS AND USES THEREOF” (Cornell University, priority 2021, published 2024):

Columns and labels:
[1] = tested on: purified recombinant human sAC protein; assay type: biochemical; conditions: 1 mM ATP, 2 mM CaCl2, 4 mM MgCl2, 40 mM NaHCO3
Method: Assays for sAC activity using purified protein were performed in 100 μl reactions containing 4 mM MgCl2, 2 mM CaCl2, 1 mM ATP, 40 mM NaHCO3, 50 mM Tris pH 7.5, and 3 mM DTT. Each reaction contained ˜1,000,000 counts of α-^32P labeled ATP.
All in vitro adenylyl cyclase activity assays were performed via the “two-column” method measuring the conversion of [α-^32P] ATP into [^32P] cAMP, as previously described [References 81, 82]. Briefly, human sACt protein [Reference 21] was incubated in buffer containing 50 mM Tris-HCl, pH 7.5, 4 mM MgCl2, 2 mM CaCl2, 1 mM ATP, 3 mM DTT, 40 mM NaHCO3 in the presence of the indicated concentrations of different sAC inhibitors or vehicle (DMSO).

[2] = cited from earlier work
[3] = tested on: wild type C57B1/6 male mice; experiment: Imiquimod-induced type 17 skin inflammation, topical treatment; assay type: in vivo, mouse; conditions: for Il17a and Il17f expression in the skin (qRT-PCR) / skin inflammation (ear thickness): imiquimod 6 days, then continued imiquimod plus topical twice a day: LRE1 3%, Clobetasol 0.05%; for skin inflammation (ear thickness): Example 1 […]
Method: Wild type C57B1/6 male mice 8-10 week old were purchased from Jackson labs. A 7 mm diameter circle was shaved and treated with Nair on the flank. Baseline ear thickness was measured. For 5 days, mice received daily treatment of 30 mg of 5% imiquimod cream (Taro) to each ear and to the 7 mm area on the flank. Ear thickness was recorded on days 3 and 5 to ensure peak inflammation had occurred. Mice were then randomized into three cohorts: vehicle, LRE1, and Clobetasol. […] Treatment with imiquimod was continued during this period as above. Ear thickness was recorded every day before the first dose of drug. On day 11, all mice were euthanized. A 7 mm punch biopsy was collected from the flank and both ears were removed. Skin was stored in RNAlater (Sigma) for qPCR or 10% formalin for immunohistochemistry.
For tissue, RNA was isolated according to specifications of the RNA easy plus universal mini kit (Qiagen). Tissue was homogenized using stainless steel beads in a bead beater. For frozen cell pellets, RNA was isolated according to specifications of the RNA easy plus mini kit (Qiagen). Samples were homogenized using Qiashredder columns (Qiagen). RNA quality control was performed using a nanodrop spectrophotometer. cDNA was made using the high-capacity rna-to-cdna kit (thermo fischer). The applied biosystems power SYBR green PCR master mix was used for qPCR. 40 cycles with annealing temperatures of 60 degrees celsius and a melting curve were performed using the QuantStudio 6 real-time PCR instrument (thermo fischer). Delta delta CT analysis was performed to determine relative transcription amongst samples normalized to GAPDH.

Cn1cc(Cc2cccc(Cl)c2)c(-c2cc(Cl)nc(N)n2)n1 [Example 11]
IC50 [1]: 75 nM

CCCc1nn(C)c2c(=O)[nH]c(-c3cc(S(=O)(=O)N4CCN(C)CC4)ccc3OCC)nc12 [sildenafil]
half-lives [2]: 4 to 5 h

Cn1cc(Cc2ccccc2Cl)c(-c2cc(Cl)nc(N)n2)n1 [Example 15]
IC50 [1]: 60 nM

COc1ccccc1Cc1cn(C)nc1-c1cc(Cl)nc(N)n1 [Example 28]
IC50 [1]: 58 nM

Nc1nc(Cl)cc(-c2nn(C(F)F)cc2Cc2ccccc2OCC(=O)N2CCOCC2)n1 [Example 95]
IC50 [1]: 15 nM

C[C@H]1C[C@H]2[C@@H]3CCC4=CC(=O)C=C[C@]4(C)[C@@]3(F)[C@@H](O)C[C@]2(C)[C@@]1(O)C(=O)CCl [Clobetasol]
Il17a and Il17f expression in the skin (qRT-PCR) [3]: significant reductions in Il17a and Il17f expression
skin inflammation (ear thickness) [3]: significant reduction in skin inflammation

CCCc1nc(C)c2c(=O)[nH]c(-c3cc(S(=O)(=O)N4CCN(CC)CC4)ccc3OCC)nn12 [vardenafil]
half-lives [2]: 4 to 5 h

Nc1nc(Cl)cc(-c2nn(C(F)F)cc2Cc2ccccc2)n1 [Example 18]
IC50 [1]: 110 nM

Cn1cc(Cc2ccccc2OCCN2CCOCC2)c(-c2cc(Cl)nc(N)n2)n1 [Example 69, 4-chloro-6-[1-methyl-4-[[2-(2-morpholinoethoxy)phenyl]methyl]pyrazol-3-yl]pyrimidin-2-amine]
reduction in inflammation ([3]; imiquimod for one week, then imiquimod plus compound, over 4 days, N=5): 50%

CNC(=O)c1ccccc1Cc1cn(C)nc1-c1cc(Cl)nc(N)n1 [Example 52]
IC50 [1]: 1200 nM

Nc1nc(Cl)cc(N(Cc2ccsc2)C2CC2)n1 [LRE1]
inflammation in the ears measured by ear calipers ([3]; applied at the same time as imiquimod, N=5): reduce the inflammation
Il17a and Il17f expression in the skin (qRT-PCR) [3]: significant reductions in Il17a and Il17f expression
skin inflammation (ear thickness) [3]: significant reduction in skin inflammation

Cn1cc(Cc2ccc(Cl)cc2)c(-c2cc(Cl)nc(N)n2)n1 [Example 13]
IC50 [1]: ~1000 nM
